Data: patent publication US4357331A, “7αMethoxycephalosporin derivatives” (Meiji Seika Kaisha, Ltd., priority 1978, dated 1982)
Converted amounts (≈) assume the structure as drawn. Read-outs that look alike come from different tables or passages of the source.

How the values were obtained:
[1] = tested on: Staphylococcus aureus 209p; assay: MIC, minimum inhibitory concentration (nutrient agar, 37° C., 20 hours); assay type: cell-based
[2] = tested on: Bacillus anthracis No. 119; assay: microbe, parasite or virus in culture; assay type: cell-based; details: NO.119, 20 h, read-out: MIC (minimum inhibitory concentration)
[3] = tested on: Escherichia coli 255; assay: MIC, minimum inhibitory concentration (nutrient agar, 37° C., 20 hours); assay type: cell-based
[4] = tested on: Citrobacter freundii; assay: as above; assay type: cell-based
[5] = tested on: Klebsiella pneumoniae; assay: as above; assay type: cell-based; details: read-out: MIC (minimum inhibitory concentration)
[6] = tested on: Proteus morganii; assay: as above; assay type: cell-based; details: Morganella morganii
[7] = tested on: Serratia marcescens No. 1; assay: as above; assay type: cell-based; details: read-out: MIC (minimum inhibitory concentration)
[8] = tested on: Pseudomonas aeruginosa IFO 3080; assay: as above; assay type: cell-based; details: IFO3080
[9] = tested on: Escherichia coli No. 29; assay: in vivo antibacterial activity (ED50) in mice challenged intraperitoneally with E. coli No. 29; set-up: species or system Escherichia coli No. 29; Male ddY mice; details: male ddY mice, fatality over a week, Probit method
[10] = Serratia marcescens No. 1, 37° C., 20 hours

SMILES	MIC [1] [µg/mL]	MIC [2] [µg/mL]	MIC [3] [µg/mL]	MIC [4] [µg/mL]	MIC ([5]; 20 h) [µg/mL]	MIC [6] [µg/mL]	MIC ([7]; Serratia marcescens, NO.1, 20 h) [µg/mL]	MIC [8] [µg/mL]	ED50 with Escherichia coli No. 29 ([9]; oral) [mg/mouse]	ED50 with Escherichia coli No. 29 ([9]; subcutaneous) [mg/mouse]	MIC ([5]; 37° C., 20 hours) [µg/mL]	MIC [7, 10] [µg/mL]
CO[C@@]1(NC(=O)Cc2cccs2)C(=O)N2C(C(=O)O)=C(COC(N)=O)CS[C@@H]21 [Cefoxitin, cefoxitin, reference compound]	1.56 (≈ 3.65 µM)	3.13 (≈ 7.32 µM)	50 (≈ 117 µM)	50 (≈ 117 µM)	3.13 (≈ 7.32 µM)	6.25 (≈ 14.6 µM)	3.13 (≈ 7.32 µM)	100 (≈ 234 µM)	> 5.0	0.43		
CC1=C(C(=O)O)N2C(=O)[C@@H](NC(=O)[C@H](N)c3ccccc3)[C@H]2SC1 [Cephalexin, cephalexin, reference compound]									1.60			
COC1(NC(=O)CSCCN)C(=O)N2C(C(=O)O)=C(CSc3nnnn3C)CSC21 (stereo not drawn) [Ex. 1, 7β-aminoethylthioacetamido-7α-methoxy-3-(1-methyl-1H-tetrazol-5-yl)thiomethyl-3-cephem-4-carboxylic acid]	1.56 (≈ 3.28 µM)	0.39 (≈ 0.82 µM)	6.25 (≈ 13.1 µM)	1.56 (≈ 3.28 µM)		6.25 (≈ 13.1 µM)		25 (≈ 52.6 µM)			3.13 (≈ 6.58 µM)	3.13 (≈ 6.58 µM)
COC1(NC(=O)CSCCNC(N)=O)C(=O)N2C(C(=O)O)=C(CSc3nnnn3C)CSC21 (stereo not drawn) [Ex. 2, 7β-ureidoethylthioacetamido-7α-methoxy-3-(1-methyl-1H-tetrazol-5-yl)thiomethyl-3-cephem-4-carboxylic acid]	3.13 (≈ 6.04 µM)	0.78 (≈ 1.5 µM)	12.5 (≈ 24.1 µM)	25 (≈ 48.2 µM)		3.13 (≈ 6.04 µM)		25 (≈ 48.2 µM)			1.56 (≈ 3.01 µM)	3.13 (≈ 6.04 µM)
COC1(NC(=O)CSCCC(N)C(=O)O)C(=O)N2C(C(=O)O)=C(CSc3nnnn3C)CSC21 (stereo not drawn) [Ex. 11, sodium 7β-(3D-3-amino-3-carboxy)propylthioacetamido-7α-methoxy-3-(1-methyl-1H-tetrazol-5-yl)thiomethyl-3-cephem-4-carboxylate]	3.13	0.2	0.78	25		3.13		100			1.56	0.78
COC1(NC(=O)CSCCC(N)C(=O)O)C(=O)N2C(C(=O)[O-])=C(C[n+]3ccc(C(N)=O)cc3)CSC21 (stereo not drawn) [Ex. 12, 7β-(3DL-3-amino-carboxy)propylthioacetamido-7α-methoxy-3-(p-carbamoylpyridinium)methyl-3-cephem-4-carboxylic acid]	6.25 (≈ 11.6 µM)	1.56 (≈ 2.89 µM)	3.13 (≈ 5.8 µM)	25 (≈ 46.3 µM)		12.5 (≈ 23.2 µM)		6.25 (≈ 11.6 µM)			6.25 (≈ 11.6 µM)	12.5 (≈ 23.2 µM)
CCOC(=O)C(N)CSCC(=O)NC1(OC)C(=O)N2C(C(=O)OCOC(=O)C(C)(C)C)=C(CSc3nnnn3C)CSC21 (stereo not drawn) [Example 17, pivaloyloxymethyl 7β-(2D-2-amino-2-ethoxycarbonyl)ethylthioacetamido-7α-methoxy-3-(1-methyl-1H-tetrazol-5-yl)thiomethyl-3-cephem-4-carboxylate]									0.86	0.046		
COC(=O)C(N)CSCC(=O)NC1(OC)C(=O)N2C(C(=O)OC(C)OC(C)=O)=C(CSc3nnnn3C)CSC21 (stereo not drawn) [Example 18, 1-acetoxyethyl 7β-(2D-2-amino-2-methoxycarbonyl)ethylthioacetamido-7α-methoxy-3-(1-methyl-1H-tetrazol-5-yl)thiomethyl-3-cephem-4-carboxylate]									0.36	0.24		
COC1(NC(=O)CSCC(N)C(=O)O)C(=O)N2C(C(=O)OC(C)OC(=O)C(C)(C)C)=C(CSc3nnnn3C)CSC21 (stereo not drawn) [Example 19, 1-pivaloyloxyethyl 7β-(2D-2-amino-2-carboxy)ethylthioacetamido-7α-methoxy-3-(1-methyl-1H-tetrazol-5-yl)thiomethyl-3-cephem-4-carboxylate]									0.25	0.17		
